Source: patent publication US20060069132A1, “Azolecarboxamide herbicides” (priority 2004, published 2006)

Key:
[1] = tested on: small flower umbrella sedge; test: Test B flooded paddy test; assay type: in vivo, Cyperus difformis; details: 1000 g ai/ha, visual rating, scale 0 to 100 (0 no effect, 100 complete control), 13 to 15 days
Method in brief: (§1)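 Each value is a visual 0–100 response rating taken against controls 13 to 15 days after treatment in the greenhouse. Plants received formulated chemical postemergence at the 1- to 4-leaf stage or, in flooded paddy, at the 2-leaf stage.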

large crabgrass [2] = test: Test A pre-/postemergence herbicide test; assay type: in vivo, Digitaria sanguinalis; details: for Plant response rating, Crabgrass, Large: Postemergence; for Crabgrass, Large plant response rating: Preemergence
Method in brief: (§2)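 Pre: seeded sandy loam, directed soil spray, compound in non-phytotoxic solvent + surfactant. Post: 1–2-leaf plants (2–10 cm), sprayed to runoff. Greenhouse ~10 d; visual injury vs untreated, 0–100 scale.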

velvetleaf [3] = test: Test B pre-/postemergence herbicide test; assay type: in vivo, Abutilon theophrasti
Method in brief: (§3)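 Evaluation is visual, comparing treated with control plants on a scale where 0 means no effect and 100 means full control. Treatments were preemergence, or postemergence on seedlings 2–18 cm tall, and held 13–15 days in the greenhouse.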

wheat = test: Test B postemergence herbicide test; assay type: in vivo, Triticum aestivum; set-up: key to Wheat plant response rating: 0 = no effect, 100 = complete control; details: scale 0 (no effect) to 100 (complete control)
Method in brief: (§4)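 Read-out: visual comparison with controls, scored 0 to 100, where 100 means complete control and 0 no effect. Formulated chemicals were applied postemergence to plants 2–18 cm tall (1- to 4-leaf), or to flooded-paddy plants at the 2-leaf stage, then held 13 to 15 days under glass.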

redroot pigweed = test: Test A pre-/postemergence herbicide test; assay type: in vivo, Amaranthus retroflexus; details: for Plant response rating, Pigweed: Postemergence; for Pigweed plant response rating: Preemergence
Method in brief: as §2

lambsquarters = test: Test B pre-/postemergence herbicide test; assay type: in vivo, Chenopodium album
Method in brief: as §3

corn = test: Test B pre-/postemergence herbicide test; assay type: in vivo, Zea mays
Method in brief: as §3

ducksalad = test: Test B flooded paddy test; assay type: in vivo, Heteranthera limosa; details: 1000 g ai/ha, visual rating, scale 0 to 100 (0 no effect, 100 complete control), 13 to 15 days
Method in brief: as §1

pigweed = test: Test B pre-/postemergence herbicide test; assay type: in vivo, Amaranthus retroflexus
Method in brief: as §3

barnyardgrass [4] = test: Test A pre-/postemergence herbicide test; assay type: in vivo, Echinochloa crus-galli; details: for Plant response rating, Barnyardgrass: Postemergence; for Barnyardgrass plant response rating: Preemergence
Method in brief: as §2

rice [5] = test: Test B pre-/postemergence herbicide test; assay type: in vivo, Oryza sativa
Method in brief: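 Plants compared with untreated controls 13–15 days post-treatment and given a visual 0–100 injury score. Applications: preemergence to seeds; postemergence at 1- to 4-leaf (2–18 cm); paddy species flooded, 2-leaf stage. Vehicle non-phytotoxic, surfactant included.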

barnyardgrass [6] = test: Test B pre-/postemergence herbicide test; assay type: in vivo, Echinochloa crus-galli
Method in brief: as §3

barnyardgrass [7] = test: Test B flooded paddy test; assay type: in vivo, Echinochloa crus-galli; details: 1000 g ai/ha, visual rating, scale 0 to 100 (0 no effect, 100 complete control), 13 to 15 days
Method in brief: as §1

rice [8] = test: Test B flooded paddy test; assay type: in vivo, Oryza sativa; details: 1000 g ai/ha, visual rating, scale 0 to 100 (0 no effect, 100 complete control), 13 to 15 days
Method in brief: as §1

morningglory [9] = test: Test A pre-/postemergence herbicide test; assay type: in vivo, Ipomoea spp.; details: for Plant response rating, Morningglory: Postemergence; for Morningglory plant response rating: Preemergence
Method in brief: as §2

blackgrass = test: Test B postemergence herbicide test; assay type: in vivo, Alopecurus myosuroides; details: scale 0 (no effect) to 100 (complete control)
Method in brief: as §1

morningglory [10] = test: Test B pre-/postemergence herbicide test; assay type: in vivo, Ipomoea coccinea
Method in brief: as §3

cocklebur = test: Test B pre-/postemergence herbicide test; assay type: in vivo, Xanthium strumarium
Method in brief: as §3

giant foxtail [11] = test: Test A pre-/postemergence herbicide test; assay type: in vivo, Setaria faberi; details: for Plant response rating, Foxtail, Giant: Postemergence; for Foxtail, Giant plant response rating: Preemergence
Method in brief: as §2

large crabgrass [12] = test: Test B pre-/postemergence herbicide test; assay type: in vivo, Digitaria sanguinalis
Method in brief: as §3

velvetleaf [13] = test: Test A pre-/postemergence herbicide test; assay type: in vivo, Abutilon theophrasti; details: for Velvetleaf plant response rating: Preemergence
Method in brief: as §2

Surinam grass = test: Test B pre-/postemergence herbicide test; assay type: in vivo, Urochloa decumbens
Method in brief: as §3

giant foxtail [14] = test: Test B pre-/postemergence herbicide test; assay type: in vivo, Setaria faberi
Method in brief: as §3

wild oat = test: Test B postemergence herbicide test; assay type: in vivo, Avena fatua; details: scale 0 (no effect) to 100 (complete control)
Method in brief: as §4

[15] = 500 g ai/ha, 0 to 100 scale, 0 no effect, 100 complete control
[16] = 2000 g ai/ha, 0 to 100 scale, 0 no effect, 100 complete control
[17] = 500 g ai/ha, visual rating, 0 to 100 scale (0 no effect, 100 complete control)
[18] = Postemergence, 500 g ai/ha, visual rating after 13 to 15 days, scale 0 (no effect) to 100 (complete control)
[19] = Preemergence, 500 g ai/ha, scale 0 to 100
[20] = postemergence, 125 g ai/ha, visual rating, scale 0 (no effect) to 100 (complete control)
[21] = preemergence, 125 g ai/ha, 0 to 100 scale, 0 is no effect, 100 is complete control
[22] = Postemergence, 500 g ai/ha, visual rating after 13 to 15 days
[23] = postemergence, 125 g ai/ha, visual rating

## CCn1nc(C(C)(C)C)cc1C(=O)Nc1cccc2c1CNC2=O [Compound 52]
[1]
  Sedge, Umbrella plant response rating: 40
Large crabgrass [2]; [15]
  Plant response rating, Crabgrass, Large: 0
Large crabgrass [2]; [16]
  Plant response rating, Crabgrass, Large: 20
  Crabgrass, Large plant response rating: 90
Large crabgrass [2]; [17]
  Crabgrass, Large plant response rating: 70
Velvetleaf [3]; [18]
  Plant response rating, Velvetleaf: 20
Velvetleaf [3]; [19]
  Velvetleaf plant response rating: 20
Velvetleaf [3]; [20]
  Velvetleaf plant response rating: 10
Velvetleaf [3]; [21]
  Plant response rating, Velvetleaf: 0
wheat; [22]
  Plant response rating, Wheat: 0
wheat; [23]
  Wheat plant response rating: 0
Redroot pigweed; [15]
  Plant response rating, Pigweed: 30
Redroot pigweed; [16]
  Plant response rating, Pigweed: 35
  Pigweed plant response rating: 90
Redroot pigweed; [17]
  Pigweed plant response rating: 90
lambsquarters; [18]
  Plant response rating, Lambsquarters: 80
lambsquarters; [19]
  Lambsquarters plant response rating: 90
lambsquarters; [20]
  Lambsquarters plant response rating: 0
lambsquarters; [21]
  Plant response rating, Lambsquarters: 0
corn; [18]
  Plant response rating, Corn: 40
corn; [19]
  Corn plant response rating: 0
corn; [20]
  Corn plant response rating: 10
corn; [21]
  Plant response rating, Corn: 0
ducksalad
  Ducksalad plant response rating: 20
pigweed; [18]
  Plant response rating, Pigweed: 10
pigweed; [19]
  Pigweed plant response rating: 90
pigweed; [20]
  Pigweed plant response rating: 0
pigweed; [21]
  Plant response rating, Pigweed: 0
Barnyardgrass [4]; [15]
  Plant response rating, Barnyardgrass: 25
Barnyardgrass [4]; [16]
  Plant response rating, Barnyardgrass: 55
  Barnyardgrass plant response rating: 90
Barnyardgrass [4]; [17]
  Barnyardgrass plant response rating: 25
Rice [5]; [19]
  Rice plant response rating: 80
Rice [5]; [21]
  Plant response rating, Rice: 0
Barnyardgrass [6]; [18]
  Plant response rating, Barnyardgrass: 0
Barnyardgrass [6]; [19]
  Barnyardgrass plant response rating: 60
Barnyardgrass [6]; [20]
  Barnyardgrass plant response rating: 0
Barnyardgrass [6]; [21]
  Plant response rating, Barnyardgrass: 10
Barnyardgrass [7]
  Barnyardgrass plant response rating: 20
Rice [8]
  Rice plant response rating: 0
Morningglory [9]; [15]
  Plant response rating, Morningglory: 0
Morningglory [9]; [16]
  Plant response rating, Morningglory: 0
  Morningglory plant response rating: 10
Morningglory [9]; [17]
  Morningglory plant response rating: 0
blackgrass; [22]
  Plant response rating, Blackgrass: 0
blackgrass; [23]
  Blackgrass plant response rating: 0
Morningglory [10]; [18]
  Plant response rating, Morningglory: 0
Morningglory [10]; [19]
  Morningglory plant response rating: 0
Morningglory [10]; [20]
  Morningglory plant response rating: 0
Morningglory [10]; [21]
  Plant response rating, Morningglory: 0
cocklebur; [18]
  Plant response rating, Cocklebur: 40
cocklebur; [19]
  Cocklebur plant response rating: 10
cocklebur; [20]
  Cocklebur plant response rating: 20
cocklebur; [21]
  Plant response rating, Cocklebur: 0
Giant foxtail [11]; [15]
  Plant response rating, Foxtail, Giant: 25
Giant foxtail [11]; [16]
  Plant response rating, Foxtail, Giant: 25
  Foxtail, Giant plant response rating: 60
Giant foxtail [11]; [17]
  Foxtail, Giant plant response rating: 20
Large crabgrass [12]; [18]
  Plant response rating, Crabgrass, Large: 10
Large crabgrass [12]; [19]
  Crabgrass, Large plant response rating: 90
Large crabgrass [12]; [20]
  Crabgrass, Large plant response rating: 0
Large crabgrass [12]; [21]
  Plant response rating, Crabgrass, Large: 20
Velvetleaf [13]; Postemergence, 2000 g ai/ha, 0 to 100 scale, 0 no effect, 100 complete control
  Plant response rating, Velvetleaf: 20
Velvetleaf [13]; [17]
  Velvetleaf plant response rating: 15
Velvetleaf [13]; [16]
  Velvetleaf plant response rating: 50
Surinam grass; [18]
  Plant response rating, Surinam Grass: 0
Surinam grass; [19]
  Surinam Grass plant response rating: 30
Surinam grass; [20]
  Surinam Grass plant response rating: 0
Surinam grass; [21]
  Plant response rating, Surinam Grass: 0
Giant foxtail [14]; [18]
  Plant response rating, Foxtail, Giant: 10
Giant foxtail [14]; [19]
  Foxtail, Giant plant response rating: 60
Giant foxtail [14]; [20]
  Foxtail, Giant plant response rating: 10
Giant foxtail [14]; [21]
  Plant response rating, Foxtail, Giant: 10
Wild oat; [22]
  Plant response rating, Oat, Wild: 10
Wild oat; [23]
  Oat, Wild plant response rating: 0
